The source of these data is patent publication US20250108050A1, “COMBINATION OF EGFR INHIBITOR AND MEK INHIBITOR FOR USE IN THE TREATMENT OF NRAS MUTATED CANCER” (ASTRAZENECA AB, priority 2014, published 2025).

The test system of data set [1] is PC9_IR4_9291R_2 (NRAS WT gain). Put plainly: Sytox Green live cell number assay, selumetinib titration. In kind it is cell-based. The settings on record: Homo sapiens, with originating EGFR inhibitor, 72 hours. As to the method: (§1) The effects of a panel of canonical pathway inhibitors on cell growth and survival was measured using a cell assay using Sytox Green staining as an end point.
(§2) Cell lines were plated in 384 well plates at 1000 cells per well in 70 μL per well of RPMI media containing 10% foetal calf serum, 2 mM L-glutamine and originating EGFR inhibitor.
(§3) The cells were allowed to attach overnight at 37° C., 5% CO2. The following day titrations of test compound were added to the assay plates using an Echo Liquid Handler Labcyte (California, USA) and the treated cells incubated for a further 72 hours at 37° C., 5% CO2. Each compound was tested as an 11 point dose response with a top concentration of 10 μM and 1 in 3 dilutions. Following 72 hours incubation of the compound treated plates, 5 μL of 2 μM SYTOX Green Nucleic Acid Stain, Life Technologies (Paisley, UK) was added per well and the plates incubated at room temperature for one hour. The number of fluorescent cells per well was measured on the Acumen TTP LabTech Ltd. (Melbourn, UK) this number representing the dead cell count. 10 μL of 0.25% Saponin Sigma (Dorset, UK) was added per well and the plates incubated over night at room temperature. The total number of fluorescent cells per well was acquired on the Acumen. The number of dead cells was subtracted from the total number of cells and the live cell number plotted to determine EC50 values from dose response curves.

The test system of another data set is PC9 (NRAS WT). The data set is described as above. In kind it is cell-based. Particulars: Homo sapiens, PC9 (NRAS WT) parental, 72 hours. As to the method: as §1, §2, §3
The test system of another data set is PC9_9291R_3 (NRAS G12V). The data set is described as above. Type of data set: cell-based. Particulars: Homo sapiens, with originating EGFR inhibitor, 72 hours. As to the method:
as §1, §2, §3

Data set [2] deals with PC9_afatinib_5 (NRAS gain). The data set is described as above. Particulars: Homo sapiens, with originating EGFR inhibitor, 72 hours. In kind it is cell-based. How it is done:
as §1, §2, §3

Another data set relates to PC9_IRGM (NRAS WT). The description is as above. Type of data set: cell-based. Particulars: Homo sapiens, with originating EGFR inhibitor, 72 hours. How it is done: as §1, §2, §3
Data set [3] deals with PC9_IR4_9291R_3 (NRAS WT gain). Described as above. Type of data set: cell-based. Particulars: Homo sapiens, with originating EGFR inhibitor, 72 hours. How it is done:
as §1, §2, §3

The test system of data set [4] is PC9_9291R_LOB1 (NRAS E63K). The data set is described as above. In kind it is cell-based. Particulars: Homo sapiens, with originating EGFR inhibitor, 72 hours. How it is done:
as §1, §2, §3

Another data set deals with PC9_IRLR (NRAS E63K). The description is as above. Type of data set: cell-based. The settings on record: Homo sapiens, with originating EGFR inhibitor, 72 hours. As to the method:
as §1, §2, §3

Data set [5] has as its system PC9_9291R_LOB3 (NRAS G12R). The description is as above. Type of data set: cell-based, human. As to the method: as §1, §2
as §3, with “The total number of fluorescent cells per well was acquired on the Acumen. The number of dead cells was subtracted from the total number of cells and the live cell number plotted to determine EC50 values from dose response curves.” left out
An AZD9291-resistant PC9 cell line was prepared using standard methods as illustrated hereinbefore. A range of such resistant cell populations were cultured and analysed.

Another data set deals with NRAS. The data set is described as follows: siRNA knockdown, western blot of NRAS expression. Type of data set: cell-based, human. Particulars: 20 nM siRNA, 48 hours; PC9, PC9 gefitinib-resistant and PC9 AZD9291-resistant cells. How it is done:
(§4) PC9, PC9 gefitinib-resistant and PC9 AZD9291-resistant cells were plated at 5×10^5 cells per well in 6 well plates in 2 mls per well of growth media supplemented with EGFR inhibitor where appropriate (resistant cells were grown in the presence of EGFR inhibitor). The cells were incubated over night at 37° C., 5% CO2. The following day the cells were treated with a final concentration of 20 nM of siRNA from Dharmacon as detailed in Table 7.
(§5) Each siRNA construct was prepared in Optimem (Life Technologies) media using RNA iMAX (Invitrogen) as transfection reagent. For each well: 2.5 μl of siRNA (20 μM stock) was mixed with 250 μL of Optimem; and 2.5 μL of RNA iMAX was mixed with 250 μL of Optimem. The 2 solutions were mixed together by pipetting and allowed to stand for 5 minutes at room temperature. The final 500 μL solution was then pipetted into the appropriate 2 mL of growth media in the 6 well plates. The plates were swirled gently and further incubated over night at 37° C., 5% CO2. The following day each well of cells was harvested and the cell number counted.
(§6) The following day, lysates were prepared from the 6 well plates so that knockdown of protein expression could be assessed following 48 hours treatment with siRNA. The lysates were analysed by western blot for levels of: phosphorylated EGFR, phosphorylated ERK, NRAS and KRAS. […]
For orientation: A western blot detects proteins with antibodies after separation by electrophoresis.

In another data set the test system is KRAS. The data set is described as follows: siRNA knockdown, western blot of KRAS expression. The settings on record: 20 nM siRNA, 48 hours; PC9, PC9 gefitinib-resistant and PC9 AZD9291-resistant cells. In kind it is cell-based, human. How it is done: as §4, §5, §6
Data set [6] concerns active NRAS. The data set is described as follows: RAS activation assay (GST-RAS binding domain pull down, western blot) in resistant PC-9 cells with E63K or G12V NRAS. In kind it is cell-based, human. Particulars: mutant NRAS (E63K or G12V) resistant PC-9 cells; 160 nM for 2 hours. How it is done: (§7) PC9 and PC9 AZD9291 resistant cells were cultured in media containing no AZD9291 for 4 days. Cells were then plated into 6 well plates and serum starved overnight. The following day the cells were treated for 2 hours with media supplemented with or without 160 nM AZD9291. Lysates were prepared and active NRAS isolated using a GST-RAS binding domain pull down assay (Thermo Scientific). Pull down lysates were analysed by western blot using an NRAS specific antibody.

The subject of data set [7] is PC9 cells. The data set is described as follows: cells. Particulars: Homo sapiens, PC-9, read-out: concentration required to inhibit growth of PC9 cells by 50% (EC50). How it is done:
PC9 cells were seeded at 5×10^5 cells in multiple fresh T75 flasks in growth media and incubated at 37° C., 5% CO2.

For data set [8], the system named is active NRAS. The data set is described as follows: RAS activation assay (GST-RAS binding domain pull down, western blot) in parental PC-9 cells. In kind it is cell-based, human. The settings on record: 160 nM for 2 hours. How it is done: as §7
In data set [9] the test system is PC9 cells. Put plainly: Growth inhibition of PC9 cells over expressing E63K mutant NRAS (sytox green). In kind it is cell-based, human. Particulars: 100 nM AZD9291 or 300 nM gefitinib, 96 hours, vs control construct.
Method: PC9 cells were transfected with control DNA construct, pcDNA 3.1+ control, or a construct designed to express E63K mutant NRAS, pcDNA 3.1+/NRAS E63K, (Life Technologies Ltd.). For 96 hour expression MaxCyte transfection technology was used to electroporate the PC9 cells. PC9 cells were passaged the day before the transfection. On the day of the transfection cells were harvested and resuspended at 9×10^7 cells per 600 μL MaxCyte buffer. 100 μL of cell suspension was transferred to a MaxCyte cuvette and the cells electroporated with 20 μg DNA construct. Following electroporation the cells for each condition were transferred to a 6 well plate and incubated at 37° C. for 30 minutes after which they were seeded in a 6 well plate at 4×10^5 cells per well. Following over night incubation the cells were harvested and replated in 384 well plate at 1000 cells/well. […] A live cell number was determined using the sytox green method as described hereinbefore.

Some results are limits rather than exact numbers.

With `Cn1cnc2c(F)c(Nc3ccc(Br)cc3Cl)c(C(=O)NOCCO)cc21` [Selumetinib, 5-[(4-bromo-2-chlorophenyl)amino]-4-fluoro-N-(2-hydroxyethoxy)-1-methyl-1H-benzimidazole-6-carboxamide], the EC50 in data set [1] worked out at 540 nM; in the data set with PC9 (NRAS WT), 6950 nM; with PC9_9291R_3 (NRAS G12V), 1400 nM; in data set [2] it was 890 nM; in the data set with PC9_IRGM (NRAS WT), 7240 nM; in data set [3], 130 nM. The EC50 in data set [4] stood at 167 nM; with PC9_IRLR (NRAS E63K), 620 nM; in data set [5] (Homo sapiens, PC9_9291R_LOB3 (NRAS G12R), with originating EGFR inhibitor, 72 hours), 140 nM. For the same molecule, the “increased sensitivity as compared to the parental cell line” value in [5] (AZD9291-resistant PC9 population with NRAS G12R vs parental cell line) is above 5 fold.
Regarding “KRAS_1: siRNA from Dharmacon, J-005069-10, sequence GAAGUUAUGGAAUUCCUUU, SEQ ID NO: 16 (listed as RNA, chemistry not given here; listed as Homo sapiens)”, the “NRAS expression (western blot)” value with NRAS is “no affect”. Further, the “KRAS expression (western blot)” value in the data set with KRAS was “knockdown”.
As to `C=CC(=O)Nc1cc(Nc2nccc(-c3cn(C)c4ccccc34)n2)c(OC)cc1N(C)CCN(C)C` [AZD9291, N-(2-{2-dimethylaminoethyl-methylamino}-4-methoxy-5-{[4-(1-methylindol-3-yl)pyrimidin-2-yl]amino}phenyl)prop-2-enamide], in the data set on active NRAS [6], the “active NRAS” value is “not associated with corresponding decrease in active NRAS” and the “phosphorylated EGFR” value is “decrease”. In the data set on PC9 cells [7], the EC50 came out at 10 nM. Also, in the data set on active NRAS [8], the “active NRAS” value is recorded as “decrease” and the “phosphorylated EGFR” value was “decrease”. Besides, the “cell growth inhibition when cells over expressed E63K mutant NRAS” value in the data set with PC9 cells [9] is “reduced”.
